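Growth conditions: 96-well plates. Treatment: test compound, 48 hours, 5 concentrations. Analysis: linear interpolation between bracketing concentrations; unreached endpoints set to highest concentration. GI50 = concentration required for 50% inhibition of growth. TGI is the concentration that stops growth completely.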
Experiments:
Assay in all cases: growth of human tumour cells (NCI), 48 h
HT29 colon = tested on: HT29 colon
A549 NSCLC = tested on: A549 NSCLC
CCRF-CEM leukemia = tested on: CCRF-CEM leukemia
MDA-N = tested on: MDA-N
MDA-MB-435 = tested on: MDA-MB-435
TK-10 renal = tested on: TK-10 renal
SF-268 CNS = tested on: SF-268 CNS
SNB-19 CNS = tested on: SNB-19 CNS
SF-539 CNS = tested on: SF-539 CNS
NCI-H23 lung = tested on: NCI-H23 lung
BT-549 breast = tested on: BT-549 breast

SMILES | TGI (HT29 colon) | TGI (A549 NSCLC) | TGI (CCRF-CEM leukemia) | TGI (MDA-N) | TGI (MDA-MB-435) | TGI (TK-10 renal) | TGI (SF-268 CNS) | TGI (SNB-19 CNS) | TGI (SF-539 CNS) | TGI (NCI-H23 lung) | TGI (BT-549 breast) | GI50 (A549 NSCLC) | GI50 (CCRF-CEM leukemia) | GI50 (MDA-MB-435) | GI50 (TK-10 renal) | GI50 (SF-268 CNS) | GI50 (SNB-19 CNS) | GI50 (NCI-H23 lung) | GI50 (HT29 colon) | GI50 (SF-539 CNS)
COC(=O)c1c(C)cccc1C1CN=NC12Cc1ccc(C)c(C)c1C2=O (stereo unspecified) | > 100 µM | > 100 µM | > 100 µM | > 100 µM | > 100 µM | > 100 µM | > 100 µM | > 100 µM | > 100 µM | > 100 µM | – | – | – | – | – | – | – | – | – | –
CC(=O)OC12c3ccccc3C(c3ccccc31)C1C(=O)N(c3ccccn3)C(=O)C12 (stereo unspecified) | > 100 µM | > 100 µM | > 100 µM | – | – | > 100 µM | > 100 µM | > 100 µM | > 100 µM | > 100 µM | > 100 µM | – | – | – | – | – | – | – | – | –
Cc1ccc(NC2=NCCO2)c2c1CCC2 | > 100 µM | > 100 µM | > 100 µM | 38.5 µM | 46.2 µM | > 100 µM | > 100 µM | > 100 µM | 56 µM | > 100 µM | – | – | – | – | – | – | – | – | – | –
COc1cc(C2C(Cl)C(=O)N2NC(=O)c2ccc(NC(C)=O)cc2)ccc1O (stereo unspecified) | > 100 µM | > 100 µM | > 100 µM | – | – | > 100 µM | > 100 µM | > 100 µM | > 100 µM | > 100 µM | – | – | – | – | – | – | – | – | – | –
Cc1ccc(N(O)C(C)(C)C)cc1 | > 100 µM | > 100 µM | > 100 µM | – | – | – | > 100 µM | > 100 µM | > 100 µM | > 100 µM | – | – | – | – | – | – | – | – | – | –
C=C(C)C1CC/C(C)=C/CC[C@]2(C)O[C@@H]2CCC2=CC1OC2=O (stereo partly specified) | – | > 100 µM | 21.9 µM | – | > 100 µM | > 100 µM | > 100 µM | > 100 µM | – | > 100 µM | – | 23.4 µM | 10.3 µM | 49.4 µM | 15.7 µM | > 100 µM | > 100 µM | 36.8 µM | – | –
COC(=O)CC(C(C(=O)OCc1ccccc1)C(C)O)N1C(=O)OC(c2ccccc2)C1c1ccccc1 (stereo unspecified) | > 100 µM | > 100 µM | > 100 µM | – | – | > 100 µM | > 100 µM | > 100 µM | > 100 µM | > 100 µM | – | – | – | – | – | – | – | – | – | –
O=c1c2ccccc2nc(-c2ccccc2)n1NC(=S)Nc1ccc(Cl)cc1 | > 100 µM | > 100 µM | > 100 µM | – | – | > 100 µM | > 100 µM | – | > 100 µM | > 100 µM | – | – | – | – | – | – | – | – | – | –
COC(=O)CCc1c(Cc2ccc[nH]2)[nH]c(C(=O)OCc2ccccc2)c1C | 38.9 µM | > 100 µM | > 100 µM | 34.4 µM | 32.6 µM | 76.2 µM | 53.7 µM | 85.8 µM | 37.5 µM | 43.9 µM | – | – | – | – | – | – | – | – | – | –
CCCC1C(=O)Nc2cccc3ncn(c23)C1=O (stereo unspecified) | > 100 µM | > 100 µM | > 100 µM | > 100 µM | > 100 µM | – | > 100 µM | > 100 µM | > 100 µM | > 100 µM | > 100 µM | – | – | – | – | – | – | – | – | –
COc1ccc(/C=C/C(=O)c2ccc(-n3cc(CN4CCN(c5cc6c(cc5F)c(=O)c(C(=O)O)cn6C5CC5)CC4)nn3)cc2)cc1OC | > 100 µM | > 100 µM | > 100 µM | – | 4.67 µM | > 100 µM | > 100 µM | 66.7 µM | 4.39 µM | 22.3 µM | – | 2.98 µM | 2.63 µM | 1.49 µM | 5.61 µM | 3.09 µM | 4.52 µM | 2.97 µM | 1.24 µM | 1.91 µM
CC(=O)NC1=C(NCCCl)C(=O)c2ccccc2C1=O | 75.1 µM | > 100 µM | 66 µM | 38.3 µM | 31.1 µM | – | > 100 µM | > 100 µM | > 100 µM | 80.1 µM | > 100 µM | – | – | – | – | – | – | – | – | –
O=[N+]([O-])c1ccc2oc(=Nc3ccccc3)c(Nc3ccccc3)nc2c1 | > 100 µM | > 100 µM | > 100 µM | > 100 µM | > 100 µM | > 100 µM | > 100 µM | > 100 µM | > 100 µM | > 100 µM | – | – | – | – | – | – | – | – | – | –
CC1(C)C(CCO)CC1n1ccc(=O)[nH]c1=O (stereo unspecified) | – | > 100 µM | > 100 µM | > 100 µM | > 100 µM | > 100 µM | > 100 µM | > 100 µM | > 100 µM | – | – | – | – | – | – | – | – | – | – | –
COc1ccc2nc3c(c(NCCCN(C)C)c2c1)CCCC3 | 27.6 µM | 49.9 µM | 28.3 µM | – | – | > 100 µM | – | 48.8 µM | 30.8 µM | 31.4 µM | – | – | – | – | – | – | – | – | – | –
CC(=O)NNc1nc(C)c(C(=O)NNC(=O)C(=O)Nc2cccc(C(C)=O)c2)s1 | > 100 µM | > 100 µM | 67.3 µM | – | – | 31.1 µM | 54 µM | > 100 µM | 39.8 µM | 35.2 µM | – | – | – | – | – | – | – | – | – | –
Cc1ccc(Sc2ccccc2[N+](=O)[O-])cc1 | 62.2 µM | > 100 µM | > 100 µM | – | – | > 100 µM | > 100 µM | – | > 100 µM | 78.2 µM | – | – | – | – | – | – | – | – | – | –
CCC(COC(=O)CC[C@@H](NC(=O)C(C)NC(=O)C(C)OC1C(O)C(CO)OC(OCc2ccccc2)C1NC(C)=O)C(N)=O)NC1c2ccccc2Nc2cccc([N+](=O)[O-])c21 (stereo partly specified) | > 100 µM | > 100 µM | > 100 µM | – | – | > 100 µM | > 100 µM | > 100 µM | > 100 µM | > 100 µM | – | – | – | – | – | – | – | – | – | –
CN1N=C(c2ccncc2)OC1c1cccc(C(F)(F)F)c1 (stereo unspecified) | > 100 µM | > 100 µM | > 100 µM | > 100 µM | > 100 µM | > 100 µM | > 100 µM | > 100 µM | 65.8 µM | > 100 µM | – | – | – | – | – | – | – | – | – | –
CCOC(=O)c1cc2c(OCc3ccccc3)c(OC)cc3c2c(n1)N(c1ccc(OC)cc1)C(C)C3 (stereo unspecified) | – | > 50 µM | > 50 µM | – | – | > 50 µM | > 50 µM | > 50 µM | – | > 50 µM | – | – | – | – | – | – | – | – | – | –
COc1ccc2c(c1)OCCc1cn[nH]c1-2 | > 100 µM | > 100 µM | > 100 µM | – | – | – | > 100 µM | > 100 µM | > 100 µM | > 100 µM | – | – | – | – | – | – | – | – | – | –
CCOC(=O)C(NC(=O)CC)(Nc1ccc(S(=O)(=O)Nc2onc(C)c2C)cc1)C(F)(F)F (stereo unspecified) | > 100 µM | > 100 µM | > 100 µM | > 100 µM | > 100 µM | – | > 100 µM | > 100 µM | > 100 µM | > 100 µM | > 100 µM | – | – | – | – | – | – | – | – | –
N=C(N)SCCC(=O)CCSC(=N)N | > 100 µM | > 100 µM | > 100 µM | > 100 µM | > 100 µM | > 100 µM | > 100 µM | > 100 µM | – | > 100 µM | – | – | – | – | – | – | – | – | – | –

Source: PubChem BioAssay (NCI)
